US9833497B2, “Human originated EGF domain proteins and use of the same” (CHENGDU SOURCEBIO LIMITED-LIABILITY COMPANY, priority 2013, dated 2017)

How the values were obtained:
Assay type in all cases: cell-based
[1] = system: Aeromonas hydrophila; test: MIC against Gram-negative bacteria: Aeromonas hydrophila; conditions: 5×10^5 CFU/mL; for MIC against A. hydrophila: Aeromonas hydrophila
Outline: (§1)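 Read-out is absence of bacterial growth, with MIC set at the lowest recombinant protein concentration achieving it. Bacteria, pre-grown in LB to McFarland 0.5 and resuspended, were exposed at 5×10^5 CFU/mL to two-fold diluted human EGF domain proteins in triplicate at 37° C, 175 rpm.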

[2] = system: E. coli BL21; test: MIC against Gram-negative bacteria: E. coli BL21; conditions: 5×10^5 CFU/mL
Outline: as §1

[3] = system: Serratia marcescens; test: MIC against Gram-negative bacteria: Serratia marcescens; conditions: 5×10^5 CFU/mL; for MIC against S. marcescens: Serratia marcescens
Outline: as §1

[4] = system: Enterobacter cloacae; test: MIC against Gram-negative bacteria: Enterobacter cloacae; conditions: 5×10^5 CFU/mL; for MIC against E. cloacae: Enterobacter cloacae
Outline: as §1

[5] = system: E. coli DH5α; test: Antibacterial activity: MIC and growth curve against E. coli DH5α in 96-well plate; conditions: minimal inhibitory concentration against E. coli DH5α; 96-well plate, 5×10^5 CFU/mL, 37° C., judged after 8 h
Outline: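 MIC taken as lowest protein level with no bacterial growth, tracked by A600 every 30 min during 37 °C, 175 rpm culture. Two-fold protein series 50-12.5 μg/mL final, triplicate wells, against 5×10^5 CFU/mL of LB-washed mid-log cells.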

[6] = system: Proteus vulgaris; test: MIC against Gram-negative bacteria: Proteus vulgaris; conditions: 5×10^5 CFU/mL; for MIC against P. vulgaris: Proteus vulgaris
Outline: as §1

[7] = system: Citrobacter diversus; test: MIC against Gram-negative bacteria: Citrobacter diversus; conditions: 5×10^5 CFU/mL; for MIC against C. diversus: Citrobacter diversus
Outline: as §1

[8] = system: Klebsiella pneumonia; test: MIC against Gram-negative bacteria: Klebsiella pneumonia; conditions: 5×10^5 CFU/mL; for MIC against K. pneumonia: Klebsiella pneumonia
Outline: as §1

[9] = system: Proteus mirabilis; test: MIC against Gram-negative bacteria: Proteus mirabilis; conditions: 5×10^5 CFU/mL; for MIC against P. mirabilis: Proteus mirabilis
Outline: as §1

[10] = system: Moraxella catarrhalis; test: MIC against Gram-negative bacteria: Moraxella catarrhalis; conditions: 5×10^5 CFU/mL; for MIC against M. catarrhalis: Moraxella catarrhalis
Outline: as §1

[11] = system: Pseudomonas aeruginosa; test: MIC against Gram-negative bacteria: Pseudomonas aeruginosa; conditions: 5×10^5 CFU/mL; for MIC against P. aeruginosa: Pseudomonas aeruginosa
Outline: as §1

[12] = 10 h cultivation at 37° C., two-fold serial dilution
[13] = E. coli BL21, 10 h cultivation at 37° C.
[14] = A. hydrophila, 10 h cultivation at 37° C.
[15] = S. marcescens, 10 h cultivation at 37° C.
[16] = E. cloacae, 10 h cultivation at 37° C.
[17] = P. vulgaris, 10 h cultivation at 37° C.
[18] = C. diversus, 10 h cultivation at 37° C.
[19] = K. pneumonia, 10 h cultivation at 37° C.
[20] = P. mirabilis, 10 h cultivation at 37° C.
[21] = M. catarrhalis, 10 h cultivation at 37° C.
[22] = P. aeruginosa, 10 h cultivation at 37° C.

PRT1165 (NRAICRQGCSPKHGSCKLPGDCRCQYGWQGLYCD; listed as Homo sapiens)
MIC A. hydrophila [1, 12]: 25 µg/mL
MIC E. coli BL21 [2, 12]: 25 µg/mL
MIC S. marcescens [3, 12]: 12.5 µg/mL
MIC E. cloacae [4, 12]: 50 µg/mL
MIC [5]: 50 µg/mL
MIC P. vulgaris [6, 12]: 25 µg/mL
MIC C. diversus [7, 12]: 12.5 µg/mL
MIC K. pneumonia [8, 12]: 25 µg/mL
MIC P. mirabilis [9, 12]: 50 µg/mL
MIC M. catarrhalis [10, 12]: 25 µg/mL
MIC P. aeruginosa [11, 12]: 12.5 µg/mL

PRT1302 (QTSPCDQYECQNGAQCIVVQQEPTCRCPPGFAGPRCE; listed as Homo sapiens)
MIC against A. hydrophila ([1]; 96-well plate, 37° C., 10 h): 12.5 µg/mL
MIC against E. coli BL21 ([2]; E. coli BL21, 96-well plate, 37° C., 10 h): 50 µg/mL
MIC against S. marcescens ([3]; 96-well plate, 37° C., 10 h): 25 µg/mL
MIC against E. cloacae ([4]; 96-well plate, 37° C., 10 h): 25 µg/mL
MIC [5]: 12.5 µg/mL
MIC against P. vulgaris ([6]; 96-well plate, 37° C., 10 h): 50 µg/mL
MIC against C. diversus ([7]; 96-well plate, 37° C., 10 h): 50 µg/mL
MIC against K. pneumonia ([8]; 96-well plate, 37° C., 10 h): 50 µg/mL
MIC against P. mirabilis ([9]; 96-well plate, 37° C., 10 h): 25 µg/mL
MIC against M. catarrhalis ([10]; 96-well plate, 37° C., 10 h): 12.5 µg/mL
MIC against P. aeruginosa ([11]; 96-well plate, 37° C., 10 h): 12.5 µg/mL

PRT1388 (RDSCPVLCGGNGEYEKGHCVCRHGWKGPECDV; listed as Homo sapiens)
MIC against A. hydrophila ([1]; 10 h cultivation at 37° C.): 25 µg/mL
MIC against E. coli BL21 [2, 13]: 12.5 µg/mL
MIC against S. marcescens ([3]; 10 h cultivation at 37° C.): 12.5 µg/mL
MIC against E. cloacae ([4]; 10 h cultivation at 37° C.): 12.5 µg/mL
MIC [5]: 100 µg/mL
MIC against P. vulgaris ([6]; 10 h cultivation at 37° C.): 12.5 µg/mL
MIC against C. diversus ([7]; 10 h cultivation at 37° C.): 12.5 µg/mL
MIC against K. pneumonia ([8]; 10 h cultivation at 37° C.): 12.5 µg/mL
MIC against P. mirabilis ([9]; 10 h cultivation at 37° C.): 12.5 µg/mL
MIC against M. catarrhalis ([10]; 10 h cultivation at 37° C.): 25 µg/mL
MIC against P. aeruginosa ([11]; 10 h cultivation at 37° C.): 12.5 µg/mL

PRT659 (DADECVIFGPGLCPNGRCLNTVPGYVCLCNPGFHYDASHKKCE; listed as Homo sapiens)
MIC A. hydrophila ([1]; 96-well plate, 37° C., 10 h): 50 µg/mL
MIC E. coli BL21 ([2]; 96-well plate, 37° C., 10 h): 50 µg/mL
MIC S. marcescens ([3]; 96-well plate, 37° C., 10 h): 50 µg/mL
MIC E. cloacae ([4]; 96-well plate, 37° C., 10 h): 25 µg/mL
MIC [5]: 25 µg/mL
MIC P. vulgaris ([6]; 96-well plate, 37° C., 10 h): 25 µg/mL
MIC C. diversus ([7]; 96-well plate, 37° C., 10 h): 25 µg/mL
MIC K. pneumonia ([8]; 96-well plate, 37° C., 10 h): 12.5 µg/mL
MIC P. mirabilis ([9]; 96-well plate, 37° C., 10 h): 12.5 µg/mL
MIC M. catarrhalis ([10]; 96-well plate, 37° C., 10 h): 25 µg/mL
MIC P. aeruginosa ([11]; 96-well plate, 37° C., 10 h): 25 µg/mL

PRT1393 (EERSCHSHCTEHGQCKDGKCECSPGWEGDHCT; listed as Homo sapiens)
MIC against A. hydrophila ([1]; 10 h cultivation at 37° C.): 12.5 µg/mL
MIC against E. coli BL21 [2, 13]: 12.5 µg/mL
MIC against S. marcescens ([3]; 10 h cultivation at 37° C.): 12.5 µg/mL
MIC against E. cloacae ([4]; 10 h cultivation at 37° C.): 25 µg/mL
MIC [5]: 25 µg/mL
MIC against P. vulgaris ([6]; 10 h cultivation at 37° C.): 50 µg/mL
MIC against C. diversus ([7]; 10 h cultivation at 37° C.): 25 µg/mL
MIC against K. pneumonia ([8]; 10 h cultivation at 37° C.): 50 µg/mL
MIC against P. mirabilis ([9]; 10 h cultivation at 37° C.): 12.5 µg/mL
MIC against M. catarrhalis ([10]; 10 h cultivation at 37° C.): 50 µg/mL
MIC against P. aeruginosa ([11]; 10 h cultivation at 37° C.): 25 µg/mL

PRT244 (TCAMINCQYSCEDTEEGPQCLCPSSGLRLAPNGRDCL; listed as Homo sapiens)
MIC (μg/mL) A. hydrophila [1, 14]: 25 µg/mL
MIC (μg/mL) E. coli BL21 [2, 13]: 12.5 µg/mL
MIC (μg/mL) S. marcescens [3, 15]: 12.5 µg/mL
MIC (μg/mL) E. cloacae [4, 16]: 12.5 µg/mL
MIC [5]: 50 µg/mL
MIC (μg/mL) P. vulgaris [6, 17]: 25 µg/mL
MIC (μg/mL) C. diversus [7, 18]: 12.5 µg/mL
MIC (μg/mL) K. pneumonia [8, 19]: 12.5 µg/mL
MIC (μg/mL) P. mirabilis [9, 20]: 12.5 µg/mL
MIC (μg/mL) M. catarrhalis [10, 21]: 25 µg/mL
MIC (μg/mL) P. aeruginosa [11, 22]: 12.5 µg/mL

PRT412 (LNDRCRGGGPCKQQCRDTGDEVVCSCFVGYQLLSDGVSCE; listed as Homo sapiens)
MIC [1, 14]: 25 µg/mL
MIC [2, 13]: 50 µg/mL
MIC [3, 15]: 12.5 µg/mL
MIC [4, 16]: 50 µg/mL
MIC [5]: 12.5 µg/mL
MIC [6, 17]: 25 µg/mL
MIC [7, 18]: 12.5 µg/mL
MIC [8, 19]: 25 µg/mL
MIC [9, 20]: 12.5 µg/mL
MIC [10, 21]: 25 µg/mL
MIC [11, 22]: 12.5 µg/mL
